From US20100317686A1, “N-HETEROCYCLIC-6-HETEROCYCLIC-IMIDAZO[1,2-a]PYRIDINE-2-CARBOXAMIDE DERIVATIVES, PREPARATION AND THERAPEUTIC USE THEREOF” (sanofi-aventis, priority 2008, published 2010) come the findings set out here.

SMILES strings stand for the structures.

The target of the test is T1, murine Nurr1 receptor (Mus musculus, UniProt Q06219).
T1 construct: a cell line (N2A) endogenously expressing the murine Nurr1 receptor; host or cells: Neuro-2A (N2A) mouse neuroblastoma cells stably transfected with 8NBRE-luciferase
T1 sequence (Q06219 whole entry): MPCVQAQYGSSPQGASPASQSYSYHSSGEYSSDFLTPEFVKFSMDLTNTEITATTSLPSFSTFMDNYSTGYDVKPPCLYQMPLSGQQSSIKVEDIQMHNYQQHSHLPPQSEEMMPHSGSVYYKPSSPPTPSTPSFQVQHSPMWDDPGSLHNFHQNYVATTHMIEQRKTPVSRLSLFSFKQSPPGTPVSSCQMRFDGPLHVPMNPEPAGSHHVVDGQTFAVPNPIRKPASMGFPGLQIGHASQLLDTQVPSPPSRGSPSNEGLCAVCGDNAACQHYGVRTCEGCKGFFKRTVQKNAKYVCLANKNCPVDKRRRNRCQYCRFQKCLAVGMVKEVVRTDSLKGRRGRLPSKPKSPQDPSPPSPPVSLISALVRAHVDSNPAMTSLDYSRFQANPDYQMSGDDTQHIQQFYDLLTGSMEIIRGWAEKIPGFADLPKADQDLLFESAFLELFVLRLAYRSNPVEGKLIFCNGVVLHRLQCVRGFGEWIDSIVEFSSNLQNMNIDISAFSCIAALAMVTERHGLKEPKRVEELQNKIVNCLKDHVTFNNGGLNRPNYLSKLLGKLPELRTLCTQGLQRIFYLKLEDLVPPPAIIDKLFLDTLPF
The experiment in a line: In vitro activity on N2A cells (Neuro-2A stably transfected with 8NBRE-luciferase reporter). In kind it is cell-based. The settings on record: N2A-8NBRE cells, 24 hours incubation with product. As to the method:
The activity of the compounds according to the invention was evaluated on a cell line (N2A) endogenously expressing the murine Nurr1 receptor and stably transfected with the NOT binding response element (NBRE) coupled to the luciferase reporter gene. The EC50 values are between 0.01 and 1000 nM. The tests were performed according to the procedure described hereinbelow.
The cell line Neuro-2A is obtained from a standard commercial source (ATCC). The clone Neuro-2A was obtained from a spontaneous tumour originating from a strain of albino mice A by R. J Klebe et al. This line Neuro-2A is then stably transfected with 8NBRE-luciferase. The N2A-8NBRE cells are cultured to the point of confluence in 75 cm^2 culture flasks containing DMEM supplemented with 10% foetal calf serum, 4.5 g/L of glucose and 0.4 mg/ml of geneticin. After culturing for one week, the cells are recovered with 0.25% trypsin for 30 seconds and then resuspended in DMEM without phenol red, containing 4.5 g/L of glucose and 10% Hyclone defatted serum, and placed in white, transparent-based 96-well plates. The cells are deposited at a rate of 60 000 per well in 75 μL for 24 hours before adding the products. The products are applied in 25 μL and incubated for a further 24 hours. On the day of measurement, an equivalent volume (100 μL) of Steadylite is added to each well, and the wells are then left for 30 minutes to obtain complete lysis of the cells and maximum production of the signal. The plates are then measured in a microplate luminescence counter, after having been sealed with an adhesive film. The products are prepared in the form of a 10^−2 M stock solution, and then diluted in 100% of DMSO. Each concentration of product is prediluted in culture medium before incubation with the cells thus containing 0.625% final of DMSO.
In general, EC50 refers to the concentration that produces a half-maximal response. A higher EC50 goes with a need for much substance. On to `O=C(Nc1nccs1)c1cn2cc(-c3cc[nH]n3)ccc2n1` [Compound 56, 6-(1H-Pyrazol-3-yl)-N-(thiazol-2-yl)imidazo[1,2-a]pyridine-2-carboxamide], for which a half-maximal effect (EC50) was put at 1 nM.

For the molecule `O=C(Nc1nncs1)c1cn2cc(-c3cc[nH]c3)ccc2n1` [Compound 51, 6-(1H-Pyrrol-3-yl)-N-(1,3,4-thiadiazol-2-yl)imidazo[1,2-a]pyridine-2-carboxamide], the response was half-maximal at 1.5 nM (EC50).

`Nc1cccc(-c2ccc3nc(C(=O)Nc4ccccn4)cn3c2)n1` [Compound 1, 6-(6-Aminopyridin-2-yl)-N-(pyridin-2-yl)imidazo[1,2-a]pyridine-2-carboxamide] showed an EC50 of 16 nM.

Regarding `O=C(Nc1nncs1)c1cn2cc(-c3cc[nH]n3)ccc2n1` [Compound 58, 6-(1H-Pyrazol-3-yl)-N-(1,3,4-thiadiazol-2-yl)imidazo[1,2-a]pyridine-2-carboxamide], the midpoint of the response, the EC50, lay at 5.3 nM.

Turning to `O=C(Nc1cc[nH]n1)c1cn2cc(-c3ccccn3)ccc2n1` [Compound 10, N-(1H-Pyrazol-3-yl)-6-(pyridin-2-yl)imidazo[1,2-a]pyridine-2-carboxamide], the EC50 was 21 nM.

Molecule `O=C(Nc1ccon1)c1cn2cc(-c3ccc(CO)o3)ccc2n1` [Compound 22, 6-[5-(Hydroxymethyl)furan-2-yl]-N-(isoxazol-3-yl)imidazo[1,2-a]pyridine-2-carboxamide] displayed an EC50 of 2 nM.

`O=C(Nc1nccs1)c1cn2cc(-c3ccccn3)ccc2n1` [Compound 7]: the EC50 came out at 0.8 nM.

Consider `O=C(Nc1cccc(F)n1)c1cn2cc(-c3ccoc3)ccc2n1` [Compound 36, N-(6-Fluoropyridin-2-yl)-6-(furan-3-yl)imidazo[1,2-a]pyridine-2-carboxamide], for which the EC50 was 0.4 nM.

With `O=C(Nc1ccccn1)c1cn2cc(-c3c[nH]cn3)ccc2n1` [Compound 2, 6-(1H-Imidazol-4-yl)-N-(pyridin-2-yl)imidazo[1,2-a]pyridine-2-carboxamide], the EC50 is 1.5 nM.
